The results in this text go back to US8658383B2, “Sweet taste receptor-expressing construct, cell body expressing the same, and utilization thereof” (T. Hasegawa Co., Ltd., priority 2009, dated 2014).

Residues, ends and D or L forms follow the SMILES beside them.

In assay [1] the target is T1, human sweet taste receptor (hT1R2+hT1R3) (Homo sapiens, UniProt Q7RTX0+Q8TE23).
T1 sequence (Q8TE23 20-839): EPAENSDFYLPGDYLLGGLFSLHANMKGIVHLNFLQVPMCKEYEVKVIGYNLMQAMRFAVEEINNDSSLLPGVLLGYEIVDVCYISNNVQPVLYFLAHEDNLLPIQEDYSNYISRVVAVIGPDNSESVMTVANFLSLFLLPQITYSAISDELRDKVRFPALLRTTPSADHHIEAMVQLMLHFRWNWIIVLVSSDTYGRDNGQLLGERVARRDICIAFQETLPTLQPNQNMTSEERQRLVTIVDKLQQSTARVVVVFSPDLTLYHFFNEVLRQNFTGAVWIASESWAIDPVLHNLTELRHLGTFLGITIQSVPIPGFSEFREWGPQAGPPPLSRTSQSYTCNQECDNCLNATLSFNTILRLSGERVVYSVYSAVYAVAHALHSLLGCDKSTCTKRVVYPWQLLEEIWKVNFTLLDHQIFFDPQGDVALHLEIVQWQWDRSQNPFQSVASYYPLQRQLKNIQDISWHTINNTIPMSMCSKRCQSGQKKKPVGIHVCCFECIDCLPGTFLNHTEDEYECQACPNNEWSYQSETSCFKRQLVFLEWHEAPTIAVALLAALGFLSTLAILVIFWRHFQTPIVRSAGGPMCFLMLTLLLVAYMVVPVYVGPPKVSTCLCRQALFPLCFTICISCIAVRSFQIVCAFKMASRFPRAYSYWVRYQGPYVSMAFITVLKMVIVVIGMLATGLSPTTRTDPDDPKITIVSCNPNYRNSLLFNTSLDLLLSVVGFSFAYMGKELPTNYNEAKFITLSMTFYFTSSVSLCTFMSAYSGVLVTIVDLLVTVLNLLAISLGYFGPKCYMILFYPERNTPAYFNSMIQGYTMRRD
T1 sequence (Q7RTX0 21-852): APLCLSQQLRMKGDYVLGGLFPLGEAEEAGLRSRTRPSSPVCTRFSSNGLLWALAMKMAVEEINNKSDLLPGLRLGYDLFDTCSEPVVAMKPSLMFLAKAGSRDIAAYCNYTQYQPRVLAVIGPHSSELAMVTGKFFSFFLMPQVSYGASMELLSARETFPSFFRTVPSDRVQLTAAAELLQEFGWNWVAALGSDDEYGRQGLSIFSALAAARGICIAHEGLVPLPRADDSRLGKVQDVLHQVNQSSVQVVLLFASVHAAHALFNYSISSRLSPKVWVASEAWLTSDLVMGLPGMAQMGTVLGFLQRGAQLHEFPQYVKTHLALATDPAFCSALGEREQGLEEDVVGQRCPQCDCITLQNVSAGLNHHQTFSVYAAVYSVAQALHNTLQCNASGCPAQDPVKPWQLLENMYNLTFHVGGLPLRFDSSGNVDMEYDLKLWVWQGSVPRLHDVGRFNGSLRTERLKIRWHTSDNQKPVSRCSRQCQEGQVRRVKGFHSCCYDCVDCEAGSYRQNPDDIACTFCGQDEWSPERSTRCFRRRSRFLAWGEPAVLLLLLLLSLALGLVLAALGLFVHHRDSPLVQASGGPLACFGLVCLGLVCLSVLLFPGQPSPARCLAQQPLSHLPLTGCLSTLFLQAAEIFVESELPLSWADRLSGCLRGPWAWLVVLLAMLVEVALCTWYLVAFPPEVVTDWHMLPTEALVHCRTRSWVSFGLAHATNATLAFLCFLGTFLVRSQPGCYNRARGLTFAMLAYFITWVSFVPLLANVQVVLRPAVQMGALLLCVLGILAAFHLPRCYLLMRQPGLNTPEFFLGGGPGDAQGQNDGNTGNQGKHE
Description: Fluorescent microscope calcium imaging (Fura-2 AM) of cultured cell strains (A) to (C). The following applies: for cell response (response cell number of 100 randomly selected cells): Aspartame final concentration 10 mM, FIG. 11.
Description: Fluorescent calcium imaging using a fluorescent microscope can be performed according to the following procedure.
First, cells are suspended in a low glucose (1,000 mg/ml) DMEM medium, from which hygromycin B has been removed, and each 40 to 80 thousands cells are seeded on each well of a 96-well plate (Greiner, Lumox).
Then, after cultured at 37° C. for 24 to 48 hours, a medium is removed and is replaced with a suitable amount of a HEPES buffer, and a HEPES buffer containing a fluorescent calcium indicator (Fura-2 AM) is further added.
After incubated at 27 to 37° C. for 30 to 60 minutes, an extracellular fluorescent indicator is removed, and this is finally replaced with a suitable amount of a HEPES buffer, and is allowed to stand at room temperature for 10 to 20 minutes. By adding thereto a sweet taste substance at a particular concentration or a solution of a sweet taste substance and a substance to be tested, taste stimulation is performed at room temperature. In the fluorescent indicator Fura-2 (excitation wavelength: 340 nm/380 nm, fluorescent wavelength: 510 nm), a fluorescent intensity of excitation at 340 nm is increased, and a fluorescent intensity of excitation at 380 nm is reduced, when a calcium ion concentration is increased.
Cells loaded with Fura-2 AM were excited at 340 nm and 380 nm, and a fluorescent image observed at 510 nm was taken using a fluorescent microscope and a CCD camera. While the image was taken, Aspartame at each final concentration of 0.1 mM, 0.5 mM, 1 mM, 2 mM and 5 mM was administered to cells and then the image was continuously taken.
Cells loaded with Fura-2 AM were excited at 340 nm and 380 nm, and a fluorescent image observed at 510 nm was taken by using a fluorescent microscope and a CCD camera. While the image was taken, Sucrose at each final concentration of 20 mM, 50 mM, 100 mM, 200 mM, 500 mM and 1 M was administered to cells and then the image was continuously taken.
Cells loaded with Fura-2 AM were excited at 340 nm and 380 nm, and a fluorescent image observed at 510 nm was taken by using a fluorescent microscope and a CCD camera. While the image was taken, sucrose at final concentration of 500 mM was administered to cells and then the image was continuously taken.

Assay [2] has as its target T2, hT1R3 (Homo sapiens, UniProt Q7RTX0).
T2 construct: The sweet taste receptor subunits T1R2 and T1R3 include an entire part of each subunit
T2 sequence (Q7RTX0 21-852): T1 sequence (Q7RTX0 21-852)
Description: Fluorescent microscope calcium imaging (Fura-2 AM) of comparison cultured cell strain (D) expressing hT1R3 and hG16gust44 only. The conditions noted are these: Aspartame final concentration 10 mM, FIG. 11. Format: cell-based. The protocol: Each of the cultured cell strains (A) to (C) prepared in Example 4 was loaded with a fluorescent calcium indicator Fura-2 AM, and cells were prepared to take them in. Cells loaded with Fura-2 AM were excited at 340 nm and 380 nm, and a fluorescent image observed at 510 nm was taken using a fluorescent microscope and a CCD camera. While the image was taken, Aspartame at a final concentration of 10 mM was administered to cells and, thereafter, the image was continuously taken. From the field of the taken image, 100 cells were randomly selected, and the response cell number was counted.
As comparison, using an expression construct consisting of pcDNA5/FRT having a sequence in which a cDNA encoding hT1R3 and a cDNA encoding hG16gust44 are connected downstream of a CMV promoter, so that an IRES sequence is flanked by those cDNAs (FIG. 10), a cultured cell strain (D) was prepared similarly as in Example 4, and the response cell number was subjected to counting as described above.

As to `COC(=O)[C@H](Cc1ccccc1)NC(=O)[C@@H](N)CC(=O)O` [aspartame] (H-Asp-Phe-OMe), the “cell response (response cell number of 100 randomly selected cells)” value is “very strong cell response was observed” in assay [1] (cultured cell strain (A)); “weaker cell response was observed” in assay [1] (cultured cell strain (B), compared with strain (A)); “weaker cell response was observed” in assay [1] (cultured cell strain (C), compared with strain (A)); “cell response was not observed” in assay [2]. The “sweet taste response (fluorescent images)” value in assay [1] (cultured cell strain (A), Aspartame in a range of 0.1 mM to 5 mM, FIG. 12) is “concentration-dependent sweet taste response was observed”.
